Source: the NIST ThermoML archive (doi:10.1021/je100765j)

Experiment: xn = mol fraction of the nth substance listed
Details: 101 kPa, Liquid; for speed of sound: Sing-around technique in a fixed-path interferometer

CCCCCl [1-chlorobutane] + CC(C)OC(C)C
Details	mass density [kg/m3]	speed of sound [m/s]
283.15 K, x1 = 0.0466	740.095	1070.9
283.15 K, x1 = 0.0991	747.139	1076.6
283.15 K, x1 = 0.1918	759.833	1087
283.15 K, x1 = 0.32	778.726	1101.5
283.15 K, x1 = 0.4199	793.339	1112.3
283.15 K, x1 = 0.516	808.586	1123.3
283.15 K, x1 = 0.623	826.434	1135.5
283.15 K, x1 = 0.7154	842.63	1146.3
283.15 K, x1 = 0.8157	861.003	1158.2
283.15 K, x1 = 0.9098	879.099	1169.3
283.15 K, x1 = 0.9559	888.28	1174.9
288.15 K, x1 = 0.0466	734.99	1048.6
288.15 K, x1 = 0.0991	741.966	1054.3
288.15 K, x1 = 0.1918	754.629	1064.7
288.15 K, x1 = 0.32	773.471	1079.4
288.15 K, x1 = 0.4199	788.055	1090.3
288.15 K, x1 = 0.516	803.274	1101.5
288.15 K, x1 = 0.623	821.073	1114
288.15 K, x1 = 0.7154	837.246	1125
288.15 K, x1 = 0.8157	855.588	1137
288.15 K, x1 = 0.9098	873.635	1148.4
288.15 K, x1 = 0.9559	882.81	1154.2
293.15 K, x1 = 0.0466	729.792	1026.2
293.15 K, x1 = 0.0991	736.75	1032
293.15 K, x1 = 0.1918	749.383	1042.5
293.15 K, x1 = 0.32	768.192	1057.3
293.15 K, x1 = 0.4199	782.731	1068.4
293.15 K, x1 = 0.516	797.924	1079.7
293.15 K, x1 = 0.623	815.68	1092.4
293.15 K, x1 = 0.7154	831.821	1103.6
293.15 K, x1 = 0.8157	850.133	1115.9
293.15 K, x1 = 0.9098	868.142	1127.6
293.15 K, x1 = 0.9559	877.303	1133.4
298.15 K, x1 = 0.0466	724.56	1003.8
298.15 K, x1 = 0.0991	731.492	1009.7
298.15 K, x1 = 0.1918	744.091	1020.2
298.15 K, x1 = 0.32	762.854	1035.2
298.15 K, x1 = 0.4199	777.351	1046.6
298.15 K, x1 = 0.516	792.506	1058
298.15 K, x1 = 0.623	810.177	1071
298.15 K, x1 = 0.7154	826.321	1082.3
298.15 K, x1 = 0.8157	844.587	1094.8
298.15 K, x1 = 0.9098	862.556	1106.6
298.15 K, x1 = 0.9559	871.691	1112.7
303.15 K, x1 = 0.0466	719.283	981.56
303.15 K, x1 = 0.0991	726.204	987.54
303.15 K, x1 = 0.1918	738.777	998.37
303.15 K, x1 = 0.32	757.526	1013.6
303.15 K, x1 = 0.4199	771.984	1024.8
303.15 K, x1 = 0.516	787.119	1036.5
303.15 K, x1 = 0.623	804.761	1049.6
303.15 K, x1 = 0.7154	820.882	1061.1
303.15 K, x1 = 0.8157	839.124	1073.8
303.15 K, x1 = 0.9098	857.076	1085.9
303.15 K, x1 = 0.9559	866.204	1092
308.15 K, x1 = 0.0466	713.967	959.5
308.15 K, x1 = 0.0991	720.87	965.54
308.15 K, x1 = 0.1918	733.414	976.43
308.15 K, x1 = 0.32	752.126	991.71
308.15 K, x1 = 0.4199	766.553	1003.3
308.15 K, x1 = 0.516	781.656	1015
308.15 K, x1 = 0.623	799.266	1028.4
308.15 K, x1 = 0.7154	815.358	1040.1
308.15 K, x1 = 0.8157	833.567	1053
308.15 K, x1 = 0.9098	851.486	1065.3
308.15 K, x1 = 0.9559	860.595	1071.5
313.15 K, x1 = 0.0466	708.604	937.74
313.15 K, x1 = 0.0991	715.486	943.72
313.15 K, x1 = 0.1918	728.002	954.72
313.15 K, x1 = 0.32	746.649	970.22
313.15 K, x1 = 0.4199	761.063	981.83
313.15 K, x1 = 0.516	776.136	993.77
313.15 K, x1 = 0.623	793.704	1007.3
313.15 K, x1 = 0.7154	809.769	1019.1
313.15 K, x1 = 0.8157	827.935	1032.2
313.15 K, x1 = 0.9098	845.816	1044.8
313.15 K, x1 = 0.9559	854.913	1051.1
